The subject of data set [1] is Rice Brown Planthopper (Nilaparvata lugens). Nature of the data set: Pest control test (stem and leaf soaking treatment) to rice brown planthopper. In kind it is in vivo. To be noted: 800 ppm, rice seedlings soaked, 25° C., five days after treatment. As to the method:
Biological Test Example 2: Pest Control Test (Stem and Leaf Soaking Treatment) to Rice Brown Planthopper (Nilaparvata lugens)
Ten rice seedlings were soaked in 20 mL of the test compound solution diluted to 800 ppm and air-dried. After air drying, the rice seedings were hold in a glass cylinder (inner diameter 4.5 cm×14 cm) with urethane and stood on the plastic cup in which 40 mL of water was put. The […] larva of rice brown planthopper was released there, covered with medicine package, and kept in a constant temperature room at 25° C. In five days after treatment, life and death were observed and the mortality was calculated.

The subject of data set [2] is Twospotted Spider Mite (Tetranychus urticae). Nature of the data set: Pest control test (leaf soaking treatment) to twospotted spider mite. In kind it is in vivo. The settings on record: 800 ppm, bean leaf with eggs soaked about 30 seconds, 25° C., seven days after treatment. As to the method:
Biological Test Example 1: Pest Control Test (Leaf Soaking Treatment) to Twospotted Spider Mite (Tetranychus urticae)
A bean leaf was cut to a diameter of 3.5 cm and placed on absorbent cotton moistened with water. Five adult females of the twospotted spider mite were released on the bean leaf and laid eggs for 24 hours, and then the adults were removed. This bean leaf was soaked for about 30 seconds in 20 mL of the dilution solution of the test compound diluted to 800 ppm. After air-drying, the bean leaf was put in a plastic cup together with absorbent cotton, covered, and kept in a constant temperature room at 25° C. In seven days after treatment, life and death were observed and the ovicidal rate was calculated.

`N#CCCNc1ccccn1` [compound (1′), 3-(Pyridyl-2-amino)propionitrile]: the “control effect (mortality)” value in data set [1] was 50%. `N#CCCN(C=O)c1ccccn1` [compound (4′), N-(2-cyanoethyl)-N-(2-pyridyl)formamide]: in data set [2], the “pest control effect (ovicidal rate)” value is 100%.

Values taken from patent US20200062710A1, “Method For Producing 3-(Pyridyl-2-Amino)Propionitrile And Analogues Thereof” (Nipppon Kayaku Kabushiki Kaisha, priority 2016, published 2020).
